Results reported in ChEMBL document CHEMBL4425149, “Lead optimization of a pyrazolo[1,5-a]pyrimidin-7(4H)-one scaffold to identify potent, selective and orally bioavailable KDM5 inhibitors suitable for in vivo biological studies” (Bioorg Med Chem Lett, 2016).
The source made the active and inactive calls. The rule behind the calls is not given here.

Tests used:
[1] = molecular target: Lysine-specific demethylase 5A (Homo sapiens, UniProt P29375); assay: Inhibition of KDM5A (unknown origin)
[2] = Inhibition of KDM5 in human PC9 cells assessed as demethylation of H3K4Me3; assay type: cell-based; settings: PC-9
[3] = Octanol-aqueous buffer distribution coefficient, log D of the compound at pH 7.4; assay type: physicochemical
[4] = Protein binding in human plasma; assay type: ADME, cell-free; settings: read-out: PPB (converted)
[5] = Dissociation constant, pKa of the compound at pH 7.4; assay type: physicochemical
[6] = Dissociation constant, pKa of the compound; assay type: physicochemical
[7] = Protein binding in mouse plasma; assay type: ADME, cell-free; settings: read-out: PPB (converted)
[8] = Half life in CD-1 mouse at 1 mg/kg, iv or 5 mg/kg, po; assay type: ADME, organism-based; settings: in vivo
[9] = fCmax in mouse at 50 mg/kg, po bid; assay type: ADME, organism-based; settings: in vivo
[10] = molecular target: Lysine-specific histone demethylase 1A (Homo sapiens) (UniProt O60341); assay: Inhibition of KDM1A (unknown origin)
[11] = Cmax in mouse at 50 mg/kg, po bid; assay type: ADME, organism-based; set-up: dose 50 mg/kg, route oral; settings: in vivo
[12] = Clearance in CD-1 mouse plasma at 1 mg/kg, iv or 5 mg/kg, po; assay type: ADME, organism-based
[13] = molecular target: Lysine-specific demethylase 3B (Homo sapiens) (UniProt Q7LBC6); assay: Inhibition of KDM3B (unknown origin)
Lysine-specific demethylase 3B (Homo sapiens), sequence (Q7LBC6 whole entry): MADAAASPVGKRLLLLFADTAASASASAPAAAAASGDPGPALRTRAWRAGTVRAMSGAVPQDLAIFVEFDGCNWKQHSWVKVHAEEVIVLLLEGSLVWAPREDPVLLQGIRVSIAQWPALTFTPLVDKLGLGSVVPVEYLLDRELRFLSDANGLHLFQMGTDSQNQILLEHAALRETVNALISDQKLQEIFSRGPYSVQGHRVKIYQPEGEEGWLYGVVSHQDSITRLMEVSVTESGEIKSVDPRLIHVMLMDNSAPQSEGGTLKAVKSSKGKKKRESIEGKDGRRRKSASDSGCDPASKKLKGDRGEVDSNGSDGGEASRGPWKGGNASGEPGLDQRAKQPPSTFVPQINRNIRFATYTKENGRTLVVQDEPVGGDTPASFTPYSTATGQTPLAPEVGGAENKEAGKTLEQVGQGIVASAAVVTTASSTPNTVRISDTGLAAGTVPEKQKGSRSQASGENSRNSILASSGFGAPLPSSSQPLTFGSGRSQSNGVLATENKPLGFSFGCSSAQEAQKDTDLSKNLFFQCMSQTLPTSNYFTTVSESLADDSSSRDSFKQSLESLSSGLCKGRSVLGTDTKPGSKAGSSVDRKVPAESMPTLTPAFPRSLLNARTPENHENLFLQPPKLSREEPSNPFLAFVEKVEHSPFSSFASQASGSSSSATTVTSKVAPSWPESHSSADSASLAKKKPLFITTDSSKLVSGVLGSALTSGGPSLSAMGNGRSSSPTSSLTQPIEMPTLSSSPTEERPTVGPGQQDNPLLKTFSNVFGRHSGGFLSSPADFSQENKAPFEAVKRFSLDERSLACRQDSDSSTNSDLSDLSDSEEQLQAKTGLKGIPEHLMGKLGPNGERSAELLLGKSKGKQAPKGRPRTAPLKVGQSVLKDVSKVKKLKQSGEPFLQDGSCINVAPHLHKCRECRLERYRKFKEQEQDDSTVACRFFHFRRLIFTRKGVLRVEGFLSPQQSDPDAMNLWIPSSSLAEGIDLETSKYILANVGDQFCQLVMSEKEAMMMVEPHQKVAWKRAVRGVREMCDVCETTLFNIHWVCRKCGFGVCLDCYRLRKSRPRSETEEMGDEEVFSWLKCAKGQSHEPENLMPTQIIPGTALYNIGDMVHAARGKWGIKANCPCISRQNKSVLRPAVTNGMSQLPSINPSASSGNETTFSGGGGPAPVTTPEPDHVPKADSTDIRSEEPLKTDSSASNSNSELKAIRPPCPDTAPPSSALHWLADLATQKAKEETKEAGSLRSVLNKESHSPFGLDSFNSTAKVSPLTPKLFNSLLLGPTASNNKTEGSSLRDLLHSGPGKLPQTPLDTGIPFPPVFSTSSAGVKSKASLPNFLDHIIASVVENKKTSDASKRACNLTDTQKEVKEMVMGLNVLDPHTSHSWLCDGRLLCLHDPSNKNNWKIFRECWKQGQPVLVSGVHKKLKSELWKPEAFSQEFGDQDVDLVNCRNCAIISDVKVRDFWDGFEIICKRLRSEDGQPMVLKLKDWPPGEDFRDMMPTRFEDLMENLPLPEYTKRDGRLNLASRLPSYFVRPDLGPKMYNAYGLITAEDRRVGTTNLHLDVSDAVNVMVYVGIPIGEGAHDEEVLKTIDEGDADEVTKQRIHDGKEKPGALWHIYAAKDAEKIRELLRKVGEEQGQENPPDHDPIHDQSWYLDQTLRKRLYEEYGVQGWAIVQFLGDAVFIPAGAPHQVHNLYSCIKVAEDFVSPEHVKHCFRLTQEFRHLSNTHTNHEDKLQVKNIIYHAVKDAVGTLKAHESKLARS

[14] = molecular target: Lysine-specific demethylase 5B (Homo sapiens, UniProt Q9UGL1); assay: Inhibition of KDM5B (unknown origin)
[15] = Oral bioavailability in CD-1 mouse at 5 mg/kg; assay type: ADME, organism-based; settings: in vivo
[16] = Volume of distribution in CD-1 mouse at 1 mg/kg, iv or 5 mg/kg, po; assay type: ADME, organism-based; settings: in vivo
[17] = molecular target: Lysine-specific demethylase 6A (Homo sapiens) (UniProt O15550); assay: Inhibition of KDM6A (unknown origin)
Lysine-specific demethylase 6A (Homo sapiens), sequence (O15550 whole entry): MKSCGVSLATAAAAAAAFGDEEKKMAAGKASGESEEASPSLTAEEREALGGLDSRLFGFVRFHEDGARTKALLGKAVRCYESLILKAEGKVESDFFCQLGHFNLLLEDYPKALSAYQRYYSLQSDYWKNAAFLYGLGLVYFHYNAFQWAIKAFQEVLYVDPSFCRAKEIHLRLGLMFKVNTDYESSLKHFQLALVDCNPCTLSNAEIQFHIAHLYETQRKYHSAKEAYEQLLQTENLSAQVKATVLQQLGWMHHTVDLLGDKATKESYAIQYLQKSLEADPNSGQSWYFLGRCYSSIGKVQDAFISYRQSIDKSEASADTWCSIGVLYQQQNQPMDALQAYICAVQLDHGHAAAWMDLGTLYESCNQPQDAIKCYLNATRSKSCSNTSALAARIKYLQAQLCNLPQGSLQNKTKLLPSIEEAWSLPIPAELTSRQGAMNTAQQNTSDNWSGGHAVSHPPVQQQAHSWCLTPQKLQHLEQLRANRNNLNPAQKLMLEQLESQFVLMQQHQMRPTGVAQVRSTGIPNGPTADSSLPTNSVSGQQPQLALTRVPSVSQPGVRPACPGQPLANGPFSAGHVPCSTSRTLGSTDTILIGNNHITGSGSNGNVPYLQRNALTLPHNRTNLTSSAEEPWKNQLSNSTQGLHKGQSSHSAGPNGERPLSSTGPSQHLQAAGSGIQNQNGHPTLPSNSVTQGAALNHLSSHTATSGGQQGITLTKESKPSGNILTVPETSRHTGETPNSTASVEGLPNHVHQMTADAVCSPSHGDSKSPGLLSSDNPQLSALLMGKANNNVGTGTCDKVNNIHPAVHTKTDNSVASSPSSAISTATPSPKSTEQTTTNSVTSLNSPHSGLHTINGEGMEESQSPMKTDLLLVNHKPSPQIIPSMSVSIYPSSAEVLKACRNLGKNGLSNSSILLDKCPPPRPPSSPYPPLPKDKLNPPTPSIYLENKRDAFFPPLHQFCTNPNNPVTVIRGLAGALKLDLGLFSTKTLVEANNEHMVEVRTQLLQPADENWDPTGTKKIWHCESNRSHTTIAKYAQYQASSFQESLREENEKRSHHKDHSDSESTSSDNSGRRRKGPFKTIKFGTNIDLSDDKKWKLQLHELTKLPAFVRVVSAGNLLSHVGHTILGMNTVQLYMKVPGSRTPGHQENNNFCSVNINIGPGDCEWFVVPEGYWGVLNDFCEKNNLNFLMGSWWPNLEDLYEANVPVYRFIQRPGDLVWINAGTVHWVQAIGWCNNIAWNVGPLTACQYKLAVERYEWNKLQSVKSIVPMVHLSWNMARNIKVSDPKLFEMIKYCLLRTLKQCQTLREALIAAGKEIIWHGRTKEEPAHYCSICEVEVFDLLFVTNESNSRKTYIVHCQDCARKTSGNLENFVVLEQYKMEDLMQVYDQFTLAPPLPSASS

[18] = molecular target: Histone lysine demethylase PHF8 (Homo sapiens) (UniProt Q9UPP1); assay: Inhibition of KDM7B (unknown origin)
[19] = molecular target: T1, Lysine-specific demethylase 2B (Homo sapiens) (UniProt Q8NHM5); assay: Inhibition of KDM2B (unknown origin)
T1 sequence (whole entry): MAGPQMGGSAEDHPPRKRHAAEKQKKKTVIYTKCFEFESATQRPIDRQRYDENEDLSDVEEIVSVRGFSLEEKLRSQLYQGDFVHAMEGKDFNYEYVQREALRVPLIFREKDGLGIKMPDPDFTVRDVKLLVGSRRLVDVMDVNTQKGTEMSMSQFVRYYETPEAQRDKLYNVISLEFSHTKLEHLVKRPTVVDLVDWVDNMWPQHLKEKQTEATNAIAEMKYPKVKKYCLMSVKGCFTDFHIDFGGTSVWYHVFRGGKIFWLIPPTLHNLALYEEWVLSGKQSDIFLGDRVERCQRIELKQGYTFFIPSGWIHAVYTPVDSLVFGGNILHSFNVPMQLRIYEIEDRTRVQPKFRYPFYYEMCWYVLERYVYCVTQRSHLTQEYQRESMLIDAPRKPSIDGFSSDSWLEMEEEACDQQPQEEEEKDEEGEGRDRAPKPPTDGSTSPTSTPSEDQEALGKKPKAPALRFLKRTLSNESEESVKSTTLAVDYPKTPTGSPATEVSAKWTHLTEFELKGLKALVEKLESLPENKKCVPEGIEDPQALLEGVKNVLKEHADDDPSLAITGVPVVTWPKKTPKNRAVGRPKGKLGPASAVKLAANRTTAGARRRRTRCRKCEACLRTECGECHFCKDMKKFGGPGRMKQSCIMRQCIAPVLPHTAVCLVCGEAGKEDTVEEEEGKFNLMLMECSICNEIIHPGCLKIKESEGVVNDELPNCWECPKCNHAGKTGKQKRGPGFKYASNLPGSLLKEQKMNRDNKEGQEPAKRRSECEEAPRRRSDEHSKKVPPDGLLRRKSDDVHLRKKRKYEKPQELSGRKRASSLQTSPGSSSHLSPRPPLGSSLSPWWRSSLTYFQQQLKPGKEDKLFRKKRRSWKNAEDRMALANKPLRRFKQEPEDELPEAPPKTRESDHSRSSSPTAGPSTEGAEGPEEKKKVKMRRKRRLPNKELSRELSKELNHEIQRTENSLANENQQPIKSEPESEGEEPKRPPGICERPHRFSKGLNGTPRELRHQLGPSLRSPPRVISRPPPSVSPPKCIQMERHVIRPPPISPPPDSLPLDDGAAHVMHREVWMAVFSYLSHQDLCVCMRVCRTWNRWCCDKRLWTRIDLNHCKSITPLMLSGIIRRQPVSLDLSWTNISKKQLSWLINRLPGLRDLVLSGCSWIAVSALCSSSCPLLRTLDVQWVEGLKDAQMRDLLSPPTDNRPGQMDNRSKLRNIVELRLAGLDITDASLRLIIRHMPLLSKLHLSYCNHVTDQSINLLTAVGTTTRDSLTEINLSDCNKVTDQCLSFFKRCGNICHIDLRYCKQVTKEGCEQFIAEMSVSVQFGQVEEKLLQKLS

[20] = molecular target: Lysine-specific demethylase 5C (Homo sapiens, UniProt P41229); assay: Inhibition of KDM5C (unknown origin)

Lysine-specific demethylase 5A, sequence (P29375 whole entry): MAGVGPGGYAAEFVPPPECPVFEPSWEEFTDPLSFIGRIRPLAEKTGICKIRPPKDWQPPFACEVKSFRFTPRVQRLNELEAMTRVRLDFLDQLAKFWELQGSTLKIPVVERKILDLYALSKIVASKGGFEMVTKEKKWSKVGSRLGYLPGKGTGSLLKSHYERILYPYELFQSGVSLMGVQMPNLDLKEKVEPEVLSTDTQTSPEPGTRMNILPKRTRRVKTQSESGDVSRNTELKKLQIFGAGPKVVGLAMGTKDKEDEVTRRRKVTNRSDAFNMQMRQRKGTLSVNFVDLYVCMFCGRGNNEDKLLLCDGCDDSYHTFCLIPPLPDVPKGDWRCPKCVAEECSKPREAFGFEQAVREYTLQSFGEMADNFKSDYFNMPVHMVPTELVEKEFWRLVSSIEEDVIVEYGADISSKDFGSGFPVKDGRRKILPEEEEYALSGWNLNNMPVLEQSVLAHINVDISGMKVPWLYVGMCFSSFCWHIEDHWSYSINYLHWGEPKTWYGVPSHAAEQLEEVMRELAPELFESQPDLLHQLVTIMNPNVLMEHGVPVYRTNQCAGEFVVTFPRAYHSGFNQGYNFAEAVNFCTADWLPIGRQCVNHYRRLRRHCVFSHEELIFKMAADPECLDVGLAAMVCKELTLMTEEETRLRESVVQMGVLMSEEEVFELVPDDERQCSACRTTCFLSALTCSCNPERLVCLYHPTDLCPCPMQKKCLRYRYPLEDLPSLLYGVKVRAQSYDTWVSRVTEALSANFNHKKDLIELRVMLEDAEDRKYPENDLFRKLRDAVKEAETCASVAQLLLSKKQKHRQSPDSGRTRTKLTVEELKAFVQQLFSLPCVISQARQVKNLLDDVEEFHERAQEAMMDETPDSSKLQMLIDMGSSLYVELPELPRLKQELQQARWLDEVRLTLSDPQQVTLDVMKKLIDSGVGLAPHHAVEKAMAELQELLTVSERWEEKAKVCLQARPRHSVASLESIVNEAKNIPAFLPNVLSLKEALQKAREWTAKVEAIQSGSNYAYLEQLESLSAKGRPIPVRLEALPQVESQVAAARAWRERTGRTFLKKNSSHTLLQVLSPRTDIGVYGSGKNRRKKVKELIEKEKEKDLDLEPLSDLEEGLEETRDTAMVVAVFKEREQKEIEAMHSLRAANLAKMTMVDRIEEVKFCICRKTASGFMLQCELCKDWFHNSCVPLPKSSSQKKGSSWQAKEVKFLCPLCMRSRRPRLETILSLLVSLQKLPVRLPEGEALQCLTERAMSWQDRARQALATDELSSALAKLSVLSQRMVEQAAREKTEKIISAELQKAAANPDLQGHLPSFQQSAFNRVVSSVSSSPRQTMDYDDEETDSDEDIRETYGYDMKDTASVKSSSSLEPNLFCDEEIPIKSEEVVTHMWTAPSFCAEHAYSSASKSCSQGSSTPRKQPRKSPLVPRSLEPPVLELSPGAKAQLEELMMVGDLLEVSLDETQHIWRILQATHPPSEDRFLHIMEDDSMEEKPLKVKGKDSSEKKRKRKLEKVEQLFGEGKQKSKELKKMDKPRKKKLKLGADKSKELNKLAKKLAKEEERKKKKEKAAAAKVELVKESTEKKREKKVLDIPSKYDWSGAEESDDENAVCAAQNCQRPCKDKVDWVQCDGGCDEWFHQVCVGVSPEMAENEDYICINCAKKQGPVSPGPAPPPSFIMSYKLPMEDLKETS

SMILES	IC50 [1] [nM]	EC50 [2] [nM]	further results
CC(C)c1c[nH]c2c(C#N)cnn2c1=O	28.3		
CC(C)c1c(Cc2ccccc2)[nH]c2c(C#N)cnn2c1=O	11.9	> 30000	
CC(C)c1c(-c2cnn(C3COC3)c2)[nH]c2c(C#N)cnn2c1=O	15.9	8300	logD [3]: -0.1; fraction unbound [4]: 0.04
CC(C)c1c(-c2ccccc2)[nH]c2c(C#N)cnn2c1=O			pKa [5]: 6
Cc1ccc(-c2[nH]c3c(C#N)cnn3c(=O)c2C(C)C)cc1	20.3		
CC(C)c1c(-c2ccc(Cl)cc2)[nH]c2c(C#N)cnn2c1=O	20.4		
CC(C)c1c(N(C)C)[nH]c2c(C#N)cnn2c1=O	76.6		
CC(CO)c1c(-c2ccccc2)[nH]c2c(C#N)cnn2c1=O (configuration not stated)	29		
CC(C)c1c(N2CCCCC2)[nH]c2c(C#N)cnn2c1=O	63.2		
COC(=O)c1c(-c2ccccc2)[nH]c2c(C#N)cnn2c1=O	319		
CC(C)c1c(-c2cccc(C(F)(F)F)c2)[nH]c2c(C#N)cnn2c1=O		7500	
CC(C)c1c(-c2ccc(OC(F)(F)F)cc2)[nH]c2c(C#N)cnn2c1=O	35.9		
CC(C)c1c(-c2ccc(C(F)(F)F)cc2)[nH]c2c(C#N)cnn2c1=O	18.2		
CC(C)c1c(Oc2ccccc2)[nH]c2c(C#N)cnn2c1=O	18	> 30000	pKa [6]: 9.8
CC(C)c1c(-c2cnn(C3CCC3)c2)[nH]c2c(C#N)cnn2c1=O	11.2	870	logD [3]: 1.3; fraction unbound [4]: 0.004
CCC(C)c1c(-c2ccccc2)[nH]c2c(C#N)cnn2c1=O (racemic)		28400	
CC(C)c1c(-c2cnn(C(C)(C)C)c2)[nH]c2c(C#N)cnn2c1=O	15.1	340	fraction unbound [7]: 0.025; half-life [8]: 78 min; logD [3]: 1.4; fCmax [9]: 5.2 µM; fraction unbound [4]: 0.012; inhibition [10]: inactive; Cmax [11]: 206 µM; clearance [12]: 5 mL/min/kg; inhibition [13]: inactive; IC50 [14]: 4.7 nM; bioavailability [15]: 100%; Vd [16]: 0.44 L/kg; inhibition [17]: inactive; inhibition [18]: inactive; inhibition [19]: inactive; IC50 [20]: 65.5 nM
C#CC(C)c1c(-c2ccccc2)[nH]c2c(C#N)cnn2c1=O (racemic)	12.8	11300	
COc1cc(-c2[nH]c3c(C#N)cnn3c(=O)c2C(C)C)ccn1	31.6		
CC(C)c1c(-c2cnn(-c3ccccc3)c2)[nH]c2c(C#N)cnn2c1=O	5.6	1700	half-life [8]: 66 min; logD [3]: 1.8; fraction unbound [4]: 0.001; clearance [12]: 7.7 mL/min/kg; bioavailability [15]: 21.3%; Vd [16]: 0.63 L/kg
CCn1cc(-c2[nH]c3c(C#N)cnn3c(=O)c2C(C)C)cn1		2300	logD [3]: 0.66; fraction unbound [4]: 0.005

SMILES	IC50 [1] [nM]	EC50 [2] [nM]	further results
CC(C)c1c(-c2cn[nH]c2)[nH]c2c(C#N)cnn2c1=O	5.3	1200	fraction unbound [4]: 0.026
CCc1[nH]c2c(C#N)cnn2c(=O)c1C(C)C	9.5	12100	
CC(C)c1c(CCc2ccccc2)[nH]c2c(C#N)cnn2c1=O	13.1	> 30000	
C=Cc1c(-c2ccccc2)[nH]c2c(C#N)cnn2c1=O	20.1		
CC(C)c1c(/C=C/c2ccccc2)[nH]c2c(C#N)cnn2c1=O	17.5		
Cc1[nH]c2c(C#N)cnn2c(=O)c1C(C)C	9.3	13800	
C=CC(C)c1c(-c2ccccc2)[nH]c2c(C#N)cnn2c1=O (racemic)	15.5	16400	
C#CCc1c(-c2ccccc2)[nH]c2c(C#N)cnn2c1=O	21.1		
N#Cc1cnn2c(=O)c(Br)c(-c3ccccc3)[nH]c12	29.3		
C=C(C)c1c(-c2ccccc2)[nH]c2c(C#N)cnn2c1=O	24.7		
CC(C)c1c(-c2cnn(CCC#N)c2)[nH]c2c(C#N)cnn2c1=O	10.1	2900	logD [3]: -0.45; fraction unbound [4]: 0.066
CC(C)c1c(-c2cnn(C(C)C)c2)[nH]c2c(C#N)cnn2c1=O	13.8	440	half-life [8]: 36.6 min; logD [3]: 0.93; fraction unbound [4]: 0.013; clearance [12]: 15.7 mL/min/kg; bioavailability [15]: 69.5%; Vd [16]: 0.54 L/kg
CC(C)c1c(-c2ccco2)[nH]c2c(C#N)cnn2c1=O	6.2	6700	
N#Cc1cnn2c(=O)c(C3CCC3)c(-c3ccccc3)[nH]c12	9.2	> 30000	
CC(C)c1c(Nc2ccccc2)[nH]c2c(C#N)cnn2c1=O	27.5	> 30000	pKa [6]: 8.2
CC(C)c1c(-c2cnn(C)c2)[nH]c2c(C#N)cnn2c1=O	13.3	2000	half-life [8]: 10.2 min; logD [3]: 0.4; fraction unbound [4]: 0.011; clearance [12]: 59.9 mL/min/kg; bioavailability [15]: 61.3%; Vd [16]: 0.6 L/kg
CC(C)c1c(-c2cncnc2)[nH]c2c(C#N)cnn2c1=O		> 30000	
CC(C)c1c(-c2cnn(C3CC3)c2)[nH]c2c(C#N)cnn2c1=O	7.9	1300	logD [3]: 0.74; fraction unbound [4]: 0.008
CC(C)c1c(-c2cccnc2)[nH]c2c(C#N)cnn2c1=O	12.3	9300	
COCCn1cc(-c2[nH]c3c(C#N)cnn3c(=O)c2C(C)C)cn1	10.4	1800	logD [3]: 0.4; fraction unbound [4]: 0.033
CC(C)c1c(-c2cccc(OC(F)(F)F)c2)[nH]c2c(C#N)cnn2c1=O	28.9		
